Earlier results on one compound are cited in PMC2862725 (Molecular cancer therapeutics, 2009).

Read-outs that look alike come from different tables or passages of the source.

For series [1] the following is noted: vIII mutant tumor group; set equal to single-dose PK/PD model ref 9.
For series [2] the following is noted: wild-type tumor group; set equal to single-dose PK/PD model ref 9.
The conditions of series [3]: n = 5, two patients with malignant gliomas.

With `COc1cc2ncnc(Nc3ccc(F)c(Cl)c3)c2cc1OCCCN1CCOCC1` [gefitinib, Gefitinib], the “Vc volume of distribution of the central compartment” value in series [1] was 103.8 mL; in series [2] it was 75.0 mL. Moreover, the “gefitinib brain tumor concentration, mean” value in series [3] was 9.4 ± 9.3 µg/g.
